Laboratory results reported in article PMC10146558, “Highly Cytotoxic Copper(II) Mixed-Ligand Quinolinonato Complexes: Pharmacokinetic Properties and Interactions with Drug Metabolizing Cytochromes P450” (Pharmaceutics, 2023).
Where “and” joins values, the source holds several entries; their conditions need not be identical. Identical values can stand only once.

Key:
[1] = Chemical stability (stability in PBS); format: physicochemical; settings: 1 × PBS pH 7.4, 37 °C, 7.4 µM
Description: (§1) Pharmacological properties of the complexes 1 and 2, including stability in plasma, microsomal stability, binding to plasma proteins, and permeability through an artificial membrane, were tested under in vitro conditions and according to methods described in previous reports. Analysis of the samples was performed using Agilent RapidFire 300 High-Throughput Mass Spectrometry System (Agilent Technologies, Wakefield, MA, USA) with subsequent detection using the mass spectrometer Qtrap 5500 (AB Sciex, Concord, Toronto, ON, Canada), abbreviation RF-MS. The samples were aspirated directly from the plates into a 10 μL sample loop and passed through a C4 cartridge with solvent A (5% acetonitrile, 95% water, 0.1% formic acid) at a flow rate of 1.5 mL/min for 3 s. After the desalting step, analytes retained on the cartridge were eluted with solvent B (95% acetonitrile, 5% water, 0.1% formic acid) in the mass spectrometer at a flow rate of 0.4 mL/min for 5 s. The mass spectrometry of the samples was carried out using electrospray ionisation in the positive ion mode. Daughter ion peaks were identified using a multiple-reaction monitoring protocol.
The reaction was terminated by ice-cold methanol (chemical stability) or acetonitrile:methanol (2:1), and samples were left at −80 °C overnight (plasma stability). The solution was mixed and centrifuged (4000 rpm, 9 min, 4 °C). After lyophilization of supernatant, samples were dissolved in mobile phase with internal standard and analysed by RF/MS analysis.

[2] = Microsomal stability assay; format: in vitro ADME; settings: human liver microsomes, NADPH-generating system, 5.74 μM
Description: as §1
According to the protocol, reaction mixtures included tested compound (5.74 μM), human liver microsomes, NADPH-generating system consisting of NADP^+, isocitrate dehydrogenase, isocitric acid, and MgSO4 in 100 mM K/PO4 buffer. Assay was performed at 0, 15, 30, and 60 min. Reactions were terminated using acetonitrile–methanol (2:1) mixture. After centrifugation, the supernatant was lyophilized and analysed by RF-MS. The values of intrinsic clearance were calculated using the formula: CLint = 0.693/t1/2/mg microsome protein per mL of reaction.

human bactosomes CYP2A6 = target: T1, human bactosomes CYP2A6 (Homo sapiens, UniProt P11509); experiment: Isothermal titration calorimetry, bactosomes CYP2A6; format: binding; settings: 25 °C; for n, CYP2A6B: ITC stoichiometry, pH 7.4; for Ka, CYP2A6B / ΔG, CYP2A6B / ΔH, CYP2A6B / ΔS, CYP2A6B / Kd: ITC, pH 7.4, 1% DMSO; for Kd: read-out: Kd, CYP2A6B
T1 construct: purchased BD Biosciences (Franklin Lakes, NJ, USA); host or cells: bacterial membranes ('bactosomes')
T1 sequence (P11509 1-494): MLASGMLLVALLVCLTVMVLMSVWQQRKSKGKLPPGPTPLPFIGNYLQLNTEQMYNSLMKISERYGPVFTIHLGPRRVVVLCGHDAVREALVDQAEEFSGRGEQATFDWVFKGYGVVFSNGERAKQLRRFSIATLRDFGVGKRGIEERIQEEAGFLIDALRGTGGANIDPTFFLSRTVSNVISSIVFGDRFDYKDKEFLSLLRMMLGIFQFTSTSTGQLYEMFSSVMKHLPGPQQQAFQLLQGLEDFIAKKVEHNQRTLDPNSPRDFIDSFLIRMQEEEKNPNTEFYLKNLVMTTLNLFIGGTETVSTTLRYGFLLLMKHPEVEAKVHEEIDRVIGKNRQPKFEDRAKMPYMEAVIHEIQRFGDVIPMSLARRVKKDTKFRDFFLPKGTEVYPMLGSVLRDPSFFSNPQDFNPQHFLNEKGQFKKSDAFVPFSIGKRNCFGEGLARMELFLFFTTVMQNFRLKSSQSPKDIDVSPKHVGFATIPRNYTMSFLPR
Description: (§2) The interactions of the compounds with selected forms of cytochrome P450, i.e., human bactosomes CYP1A2, CYP2A6, CYP3A4, and recombinant human CYP3A4, were studied using isothermal titration calorimetry (ITC). ITC experiments were performed at 25 °C with a Nano ITC Low Volume (TA Instruments, New Castle, DE, USA). During all measurements, 20 injections of 16µM of the studied compound (2.5 µL each) were titrated into 250 µL of protein (2 µM) with time intervals of 300 s and a stirring speed of 250 rpm. All ITC experiments were conducted with degassed buffered solutions (100 mM phosphate buffer, pH 7.4) in the presence of 1% DMSO. Control experiments included the titration of each complex solution into a buffer. The corrected data refer to experimental data after subtraction of the buffer control data from the compounds data. The resulting thermograms were analysed using the “Independent” model within the NanoAnalyze software (TA Instruments, New Castle, DE, USA).

CYP3A4 [3] = target: T2, CYP3A4 (Homo sapiens, UniProt P08684); experiment: Isothermal titration calorimetry, recombinant human CYP3A4; format: binding; parameters: purchased Sigma-Aldrich (Prague, Czech Republic); settings: recombinant human CYP3A4, 25 °C; for n, CYP3A4: ITC stoichiometry, pH 7.4; for Ka, CYP3A4 / Kd / ΔG, CYP3A4 / ΔH, CYP3A4 / ΔS, CYP3A4: ITC, pH 7.4, 1% DMSO
Description: as §2
Target sequence in this assay (P08684 whole entry): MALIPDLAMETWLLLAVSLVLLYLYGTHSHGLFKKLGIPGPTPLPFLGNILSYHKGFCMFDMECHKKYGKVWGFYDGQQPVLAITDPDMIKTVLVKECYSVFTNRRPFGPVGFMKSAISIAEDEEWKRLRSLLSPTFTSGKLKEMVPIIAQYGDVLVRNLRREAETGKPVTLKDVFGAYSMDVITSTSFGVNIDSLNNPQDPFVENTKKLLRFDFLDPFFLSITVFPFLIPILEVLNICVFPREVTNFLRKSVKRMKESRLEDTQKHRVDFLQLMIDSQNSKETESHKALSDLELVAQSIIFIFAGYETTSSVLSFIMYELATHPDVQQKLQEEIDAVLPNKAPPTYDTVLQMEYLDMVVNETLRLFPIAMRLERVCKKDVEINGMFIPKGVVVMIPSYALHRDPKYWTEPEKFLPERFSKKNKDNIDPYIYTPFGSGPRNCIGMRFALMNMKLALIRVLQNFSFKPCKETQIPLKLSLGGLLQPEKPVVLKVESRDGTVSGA

CYP2C9 = target: T3, CYP2C9 (Homo sapiens, UniProt P11712); experiment: CYP2C9 activity (diclofenac 4′-hydroxylation) in human liver microsomes; format: biochemical; settings: for Type of inhibition, CYP2C9 / Ki: Dixon and Lineweaver–Burk plots; for Ki: substrate ½ Km to 4 Km; for IC50: human liver microsomes, diclofenac 4′-hydroxylation
T3 construct: Cryopreserved pooled human liver microsomes were obtained from Xenotech; tissue Xenotech (Lenexa, KS, USA); host or cells: pooled human liver microsomes
T3 sequence (P11712 whole entry): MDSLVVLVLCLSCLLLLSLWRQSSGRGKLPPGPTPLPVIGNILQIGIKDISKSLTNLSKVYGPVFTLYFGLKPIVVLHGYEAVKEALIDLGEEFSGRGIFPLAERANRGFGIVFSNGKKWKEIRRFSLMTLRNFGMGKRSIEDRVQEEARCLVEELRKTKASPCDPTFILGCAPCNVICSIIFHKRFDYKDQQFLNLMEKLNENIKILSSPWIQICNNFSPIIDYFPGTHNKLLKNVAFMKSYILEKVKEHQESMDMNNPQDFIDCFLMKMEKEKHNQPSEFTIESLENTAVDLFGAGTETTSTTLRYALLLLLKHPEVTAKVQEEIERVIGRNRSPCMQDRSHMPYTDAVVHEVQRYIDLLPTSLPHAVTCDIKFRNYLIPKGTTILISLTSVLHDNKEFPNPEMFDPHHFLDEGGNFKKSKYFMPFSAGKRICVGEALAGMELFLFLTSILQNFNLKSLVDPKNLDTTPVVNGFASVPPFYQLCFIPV
Description: (§3) For each enzyme assay, the preliminary experiments to determine Michaelis constant (Km) and limiting velocity (Vmax) were performed to calculate the time of incubation (the specified time for which the reaction is still linear) and the values of substrate concentration (in the range corresponding to the value of Km).
(§4) The reaction mixtures were buffered by 0.1 M potassium phosphate buffer (pH 7.4) and contained a NADPH-generating system consisting of the isocitrate dehydrogenase (6 U/mL), NADP^+ (0.5 mM), isocitric acid (4 mM), and MgSO4 (5 mM). The final concentration levels of complexes were obtained by diluting a 10 mM solution with dimethyl sulfoxide (DMSO). It is known that DMSO can in some cases inhibit P450; the following measures were thus applied: (a) control samples containing organic solvent without the tested compounds were prepared and used as references; (b) DMSO levels were maintained below 0.1% to minimise the inhibition. Inhibition experiments were performed using five concentration levels of the tested compounds in the range of 10–100 µM. The maximum concentration was chosen so that in the case of inhibition, it would be possible to determine the inhibitory effect of the complexes and characterise them by determining the IC50 value. Additionally, an inhibitor-free control was used as a reference. Incubations were executed in two independent batches, and the samples were prepared and measured in triplicate at 37 °C. Analyses of the metabolites formed from the specific substrates were performed by HPLC using the Prominence system (Shimadzu, Kyoto, Japan) equipped with a LiChroCART 250-4 LiChrospher 100 RP-18 column, Chromolith® HighResolution RP-18 end-capped column (Merck, Darmstadt, Germany), or Kinetex Biphenyl column (Phenomenex, Torrace, CA, USA).
(§5) The apparent Ki values were determined by additional measurements using substrate concentrations corresponding to 1/2 Km, Km, 2 Km, and 4 Km in the case of inhibition. The type of model was selected on the basis of the Lineweaver–Burk and Dixon plots. The values of IC50 were obtained by analysing the plot of the percentage of activity remaining after inhibition versus the logarithm of the inhibitor concentration using the GraphPad Prism 6 software (La Jolla, CA, USA).

CYP3A4/5 = CYP3A4/5 activity (testosterone 6β-hydroxylation) in human liver microsomes; settings: for Type of inhibition, CYP3A4/5 (testosterone 6β-hydroxylation) / Ki: Dixon and Lineweaver–Burk plots; for IC50: read-out: IC50 CYP3A4/5 (testosterone 6β-hydroxylation assay), human liver microsomes; for Ki: read-out: Ki CYP3A4/5 (testosterone 6β-hydroxylation assay), substrate ½ Km to 4 Km
Description: For each enzyme assay, the preliminary experiments to determine Michaelis constant (Km) and limiting velocity (Vmax) were performed to calculate the time of incubation (the specified time for which the reaction is still linear) and the values of substrate concentration (in the range corresponding to the value of Km). The amount of human liver microsomes (HLM; expressed as the amount of CYP in pmol and the concentration of HLM protein in mg/mL in the reaction vessel) in the reaction was determined using previously established protocols [40].
The reaction mixtures were buffered by 0.1 M potassium phosphate buffer (pH 7.4) and contained a NADPH-generating system consisting of the isocitrate dehydrogenase (6 U/mL), NADP^+ (0.5 mM), isocitric acid (4 mM), and MgSO4 (5 mM). The final concentration levels of complexes were obtained by diluting a 10 mM solution with dimethyl sulfoxide (DMSO). It is known that DMSO can in some cases inhibit P450; the following measures were thus applied: (a) control samples containing organic solvent without the tested compounds were prepared and used as references; (b) DMSO levels were maintained below 0.1% to minimise the inhibition. Inhibition experiments were performed using five concentration levels of the tested compounds in the range of 10–100 µM. The maximum concentration was chosen so that in the case of inhibition, it would be possible to determine the inhibitory effect of the complexes and characterise them by determining the IC50 value. Additionally, an inhibitor-free control was used as a reference. Incubations were executed in two independent batches, and the samples were prepared and measured in triplicate at 37 °C.
The type of model was selected on the basis of the Lineweaver–Burk and Dixon plots. The values of IC50 were obtained by analysing the plot of the percentage of activity remaining after inhibition versus the logarithm of the inhibitor concentration using the GraphPad Prism 6 software (La Jolla, CA, USA).

CYP2C19 = target: T4, CYP2C19 (Homo sapiens, UniProt P33261); experiment: CYP2C19 activity ((S)-mephenytoin 4′-hydroxylation) in human liver microsomes; format: biochemical; settings: for Type of inhibition, CYP2C19 / Ki: Dixon and Lineweaver–Burk plots; for Ki: substrate ½ Km to 4 Km; for IC50: human liver microsomes, (S)-mephenytoin 4′-hydroxylation
T4 construct: Cryopreserved pooled human liver microsomes were obtained from Xenotech; tissue Xenotech (Lenexa, KS, USA); host or cells: pooled human liver microsomes
T4 sequence (P33261 whole entry): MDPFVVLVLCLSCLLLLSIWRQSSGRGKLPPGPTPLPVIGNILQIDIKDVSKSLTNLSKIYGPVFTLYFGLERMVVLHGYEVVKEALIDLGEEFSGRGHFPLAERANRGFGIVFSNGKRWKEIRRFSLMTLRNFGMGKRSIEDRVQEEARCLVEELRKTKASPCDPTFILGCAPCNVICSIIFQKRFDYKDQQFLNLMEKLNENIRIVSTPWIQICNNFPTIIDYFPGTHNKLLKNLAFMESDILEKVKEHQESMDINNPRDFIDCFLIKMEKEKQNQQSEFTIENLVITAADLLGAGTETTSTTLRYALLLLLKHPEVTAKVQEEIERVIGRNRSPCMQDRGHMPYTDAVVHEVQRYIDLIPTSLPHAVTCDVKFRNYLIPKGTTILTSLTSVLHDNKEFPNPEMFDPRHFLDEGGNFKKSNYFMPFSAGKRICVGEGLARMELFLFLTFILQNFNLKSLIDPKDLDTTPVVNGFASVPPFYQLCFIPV
Description: as §3, §4, §5

CYP3A4 [4] = target: T2, CYP3A4; experiment: CYP3A4 activity (midazolam 1′-hydroxylation) in human liver microsomes; settings: read-out: IC50 CYP3A4 (midazolam 1′-hydroxylation assay); human liver microsomes
Target sequence in this assay (P08684 2-503): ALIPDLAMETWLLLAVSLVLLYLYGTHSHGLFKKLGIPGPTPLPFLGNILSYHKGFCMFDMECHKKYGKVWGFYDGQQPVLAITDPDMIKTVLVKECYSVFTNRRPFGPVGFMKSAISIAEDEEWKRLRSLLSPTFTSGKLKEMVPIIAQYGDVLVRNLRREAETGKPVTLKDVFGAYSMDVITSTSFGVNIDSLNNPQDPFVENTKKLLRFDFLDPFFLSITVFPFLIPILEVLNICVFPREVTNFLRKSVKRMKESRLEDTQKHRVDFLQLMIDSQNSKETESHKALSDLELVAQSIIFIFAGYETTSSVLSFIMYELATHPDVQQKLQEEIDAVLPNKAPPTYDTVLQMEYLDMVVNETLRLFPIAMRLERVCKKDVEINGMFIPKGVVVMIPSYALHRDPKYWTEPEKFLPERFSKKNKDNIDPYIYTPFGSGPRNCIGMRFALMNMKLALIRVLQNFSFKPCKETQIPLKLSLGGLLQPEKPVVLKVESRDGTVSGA
Description: as §3, §4, §5

human bactosomes CYP3A4 = target: T5, human bactosomes CYP3A4 (Homo sapiens, UniProt P08684); experiment: Isothermal titration calorimetry, bactosomes CYP3A4; format: binding; settings: 25 °C; for n, CYP3A4B: ITC stoichiometry, pH 7.4; for Ka, CYP3A4B / ΔG, CYP3A4B / ΔH, CYP3A4B / ΔS, CYP3A4B / Kd: ITC, pH 7.4, 1% DMSO; for Kd: read-out: Kd, CYP3A4B
T5 construct: purchased Cypex (Dundee, UK); host or cells: bacterial membranes ('bactosomes')
T5 sequence (P08684 whole entry): as the sequence (P08684 whole entry) above
Description: as §2

| Structure (SMILES) | % Compound Remaining, Chemical Stability, 15 min [1] [%] | % Compound Remaining, Chemical Stability, 30 min [1] [%] | % Compound Remaining, Chemical Stability, 60 min [1] [%] | % Compound Remaining, Chemical Stability, 120 min [1] [%] | % Compound remaining, Microsomal stability, 15 min [2] [%] | % Compound remaining, Microsomal stability, 30 min [2] [%] | % Compound remaining, Microsomal stability, 60 min [2] | n, CYP2A6B (human bactosomes CYP2A6) | Ka, CYP2A6B (human bactosomes CYP2A6) [M⁻¹] | ΔG, CYP2A6B (human bactosomes CYP2A6) | ΔH, CYP2A6B (human bactosomes CYP2A6) [kcal/mol] | ΔS, CYP2A6B (human bactosomes CYP2A6) [J/mol.K] | Kd (human bactosomes CYP2A6) [µM] | n, CYP3A4 (CYP3A4 [3]) | Ka, CYP3A4 (CYP3A4 [3]) [M⁻¹] | Kd (CYP3A4 [3]) [µM] | ΔG, CYP3A4 (CYP3A4 [3]) | ΔH, CYP3A4 (CYP3A4 [3]) [kcal/mol] | ΔS, CYP3A4 (CYP3A4 [3]) [J/mol.K] | Type of inhibition, CYP2C9 (CYP2C9) | further results |
| --- | --- | --- | --- | --- | --- | --- | --- | --- | --- | --- | --- | --- | --- | --- | --- | --- | --- | --- | --- | --- | --- |
| Cc1cc2cccnc2c2ncccc12.O.O=[N+]([O-])[O-].O=c1c([O-])c(-c2ccccc2)[nH]c2ccccc12.[Cu+2] [complex 1] | 99.6 ± 3.6 | 99.9 ± 1.5 | 97.8 ± 3.4 | 96.6 ± 3.4 | 99.4 ± 3.5 | 80.7 ± 2.8 | 78% and 78.1 ± 1.7% | 0.801 | 1.04e+06 | −40,050.9 J/mol | -7.603 | 27.64 | 0.962 | 1.171 | 1.3e+07 | 0.0769 | −34,899.9 J/mol | -21.05 | −178.3 | non-competitive | Ki (CYP2C9): 2.56 ± 0.37 µM; IC50 (CYP2C9): 16.3 µM; Type of inhibition, CYP3A4/5 (testosterone 6β-hydroxylation) (CYP3A4/5): non-competitive; IC50 (CYP3A4/5): 2.46 µM; Ki (CYP3A4/5): 3.6 ± 0.67 µM; Type of inhibition, CYP2C19 (CYP2C19): non-competitive; Ki (CYP2C19): 4.15 ± 0.71 µM; IC50 (CYP2C19): 61.2 µM; IC50 (CYP3A4 [4]): 28.8 ± 2.55 µM; n, CYP3A4B (human bactosomes CYP3A4): 0.911; Ka, CYP3A4B (human bactosomes CYP3A4): 1.92e+07 M⁻¹; ΔG, CYP3A4B (human bactosomes CYP3A4): −41,558.7 J/mol; ΔH, CYP3A4B (human bactosomes CYP3A4): -19.13 kcal/mol; ΔS, CYP3A4B (human bactosomes CYP3A4): −129 J/mol.K; Kd (human bactosomes CYP3A4): 0.0521 µM |
| Cc1cc2cccnc2c2ncccc12.F[B-](F)(F)F.O.O=c1c([O-])c(-c2ccccc2)[nH]c2ccccc12.[Cu+2] [complex 2] | 99.6 ± 3.0 | 96.8 ± 2.4 | 94.0 ± 3.3 | 96.6 ± 2.4 | 76.5 ± 2.7 | 76.2 ± 2.7 | 70% and 69.7 ± 2.4% | 1.071 | 3.12e+06 | −37,070.9 J/mol | -5.507 | 47.06 | 0.321 | 1.095 | 1.59e+07 | 0.0629 | -1.3352 kcal/mol | -12.37 | −154.9 | fully non-competitive | Ki (CYP2C9): 0.92 ± 0.25 µM; CYP2C9 activity remaining, % of the control (CYP2C9; at 100 μM): 7%; IC50 (CYP2C9): 37.2 µM; Type of inhibition, CYP3A4/5 (testosterone 6β-hydroxylation) (CYP3A4/5): fully non-competitive; CYP3A4/5 activity remaining (testosterone 6β-hydroxylation), % of basal activity (CYP3A4/5; at 100 μM): 1%; IC50 (CYP3A4/5): 4.88 µM; Ki (CYP3A4/5): 3.94 ± 0.6 µM; Type of inhibition, CYP2C19 (CYP2C19): fully non-competitive; Ki (CYP2C19): 9.14 ± 0.8 µM; CYP2C19 activity remaining, % of the basal activity (CYP2C19; at 100 μM): 36%; IC50 (CYP2C19): 77.1 µM; IC50 (CYP3A4 [4]): 33 ± 1.13 µM; n, CYP3A4B (human bactosomes CYP3A4): 0.859; Ka, CYP3A4B (human bactosomes CYP3A4): 2.17e+07 M⁻¹; ΔG, CYP3A4B (human bactosomes CYP3A4): −41,881.2 J/mol; ΔH, CYP3A4B (human bactosomes CYP3A4): -14.99 kcal/mol; ΔS, CYP3A4B (human bactosomes CYP3A4): −69.86 J/mol.K; Kd (human bactosomes CYP3A4): 0.0461 µM |
